The results in this text go back to patent US20250041571A1, “DRUG COATED MEDICAL DEVICES” (Vanderbilt University, priority 2023, published 2025).

“Also recorded” adds a separate entry of the source.

For data set [1], the system named is cells of ex vivo rat aortas (isolated SMCs). Nature of the data set: Cellular uptake of fluorescent MK2i in treated rat aortas by flow cytometry. It is filed as cell-based. To be noted: flow cytometry 1 hour after treatment. Here is the method: Flow Cytometry: After aorta treatment, samples were incubated in DMEM (+HEPES, +L-glutamine, +3% FBS, +1% Antibiotic/Antimycotic) for 1 hour to allow for cell uptake. The aortas were subsequently transferred to 500 μL of cold PBS+1% FBS and cut with scissors into small (˜1 mm) sized pieces. Digestion media in DMEM was then added to the PBS/tissue tube (500 μL) to achieve a final enzyme concentration of 0.7 mg/mL liberase, 4 mg/mL collagenase, and 0.2 mg/mL DNase and the tubes were placed in a 37° C. incubator on a shaker for ˜90 minutes or until digestion was apparent. After incubation, the samples were filtered through a 70 μm cell strainer and centrifuged at 500 g for 8 minutes. […] Cells were read for fluorescence on a Guava easyCyte HT and the resulting data was processed in FlowJo.
MK2i tissue transfer and cell uptake: Coated balloons (6 layers, 100 μM MK2i, 10 μM PPAA) were inflated in ex vivo rat aortas for 3 minutes and samples were cryosectioned to visualize fluorescent MK2i delivery (FIG. 9A, FIG. 9B, and FIG. 9C). ROIs were drawn around the vessel wall and total MK2i fluorescence was normalized to vessel wall cross sectional area. […] Cellular uptake was also measured with flow cytometry, quantifying cellular association of fluorescent MK2i within the treated tissue. […]
(In flow cytometry, cells or beads pass a laser one at a time.)

For data set [2], the system named is ex vivo rat aortas. The data set can be described thus: MK2i transfer from coated balloons to ex vivo rat aorta (confocal fluorescence, tissue lysate fluorescence). The class given is in vitro ADME. Here is the method:
Aorta treatment: Harvested aortas were damaged with an angioplasty balloon prior to treatment (3×, 15 seconds each, 25% overstretch). Coated balloons were then inserted into the aorta and pressurized for 3 minutes in DMEM (+HEPES, +L-glutamine, +3% FBS, +1% Antibiotic/Antimycotic), with deflation and reinflation at each minute mark to allow for maximum release and tissue transfer. After 3 minutes, the balloon was deflated and removed. The treated artery was then washed briefly with DMEM to remove excess MK2i and then processed for further experimentation or data collection. […]
Delivery visualization and quantification: Immediately after aorta treatment, samples were placed into OCT and frozen for cryosectioning. […] Then, total intensity of MK2i-568 within the arterial wall was calculated by subtracting the intensity of the inside segment from the intensity of the total segment. […]
MK2i Delivery and Retention Quantification: Tissue lysates prepped for western blotting were measured for presence of fluorescently labeled MK2i to quantify tissue delivery and retention. Tissue lysate fluorescence was measured on a TECAN Infinite M1000 Pro plate reader and compared to a standard curve of fluorescent MK2i to calculate tissue MK2i concentration. […]

Data set [3] is described as follows: Balloon loading and release quantification (3 min PBS soak, DMSO strip, fluorescence). It is filed as physicochemical. Here is the method: Balloon loading and release quantification: Angioplasty balloons (2.5 mm×20 mm) were coated with PPAA and MK2i-568 and then soaked in PBS with calcium and magnesium for 3 minutes to measure balloon release. The balloons were then soaked again in DMSO under sonication for 3 minutes to remove any remaining MK2i layers. The fluorescence of the PBS and DMSO solutions was measured on a TECAN Infinite M1000 Pro plate reader and compared to a standard curve of MK2i-568 in PBS and DMSO, respectively.
Balloon Loading and Release: Balloon release and total loading was quantified for different lactosucrose (LS) coating conditions. […] The fluorescence of these two solutions was then measured and used to quantify MK2i concentration (FIG. 5B and FIG. 5C).
Increasing balloon loading and release: To increase the amount of MK2i loaded onto and released from the balloons, two strategies were compared. […] Loading and release were measured as before—3 min wash in PBS followed by sonication in DMSO. The solution fluorescence was measured to determine loading and release.
Balloon loading and release quantification: Angioplasty balloons (2.5 mm×20 mm, Maverick OTW, Boston Scientific) were coated with PPAA and MK2i-568 and then soaked in PBS with calcium and magnesium for 3 minutes to measure balloon release. […]

Data set [4] deals with ex vivo rat aortas. The data set can be described thus: Immunofluorescence of balloon damaged rat aortas after 7 d in flow loop bioreactor. It is filed as cell-based. To be noted: 7 d after balloon injury.

For the compound `OC[C@H]1O[C@@H](O[C@H]2[C@H](O)[C@@H](O)[C@@H](O[C@]3(CO)O[C@H](CO)[C@@H](O)[C@@H]3O)O[C@@H]2CO)[C@H](O)[C@@H](O)[C@H]1O` [LS, lactosucrose], in data set [1], the “cellular / intracellular uptake of MK2i” value is reported as “benefited; also recorded: significantly increased the intracellular uptake”. Moreover, in the data set with ex vivo rat aortas [2] (immediately after 3 min balloon inflation), the “MK2i transfer to the tissue (fluorescence in vessel wall)” value is reported as “benefited; also recorded: increased MK2i transfer to the tissue”. The “depth of MK2i delivery into the vessel wall (intensity profile)” value with ex vivo rat aortas [2] (immediately after balloon inflation) is “modest effect on increasing the depth of delivery”. Further, in data set [3] (3 minutes in PBS), the “MK2i release from balloon” value is given as “did not yield any differences”. Further, in data set [3] (between coating conditions), the “MK2i loading (comparison in words)” value is on record as “did not yield any differences”.
On to “MAPKAP Kinase II inhibitory peptide [MK2i]”, for which, in the data set on ex vivo rat aortas [4], the MYH expression entry is on record as “preserving expression” and the SM22 expression result was “preserving expression”.
